# US9611252B2 (LifeSci Pharmaceuticals, Inc., priority 2013, dated 2017)
# Read-outs that look alike come from different tables or passages of the source.
# What was measured:
# human Plasma Kallikrein = human Plasma Kallikrein (Homo sapiens (Human), UniProt P03952); assay: In vitro enzyme inhibition of human plasma kallikrein (PFR-AMC cleavage); assay type: biochemical; conditions: human plasma kallikrein, Pro-Phe-Arg-AMC substrate, 37° C.; read-out: hPK IC50
# Outline: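 Compound pre-incubated with human plasma kallikrein 5 min at 37° C in 50 mM Tris-HCl pH 7.5, 150 mM NaCl, 0.01% Triton X-100. Reaction started with PFR-AMC, cleavage read kinetically at 37° C every 43 s for 1 h.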
# kallikrein = kallikrein (Homo sapiens (Human), UniProt P03952); assay: In vitro cellular assay (contact assay): kallikrein activity in ellagic acid-activated human plasma, substrate Z-FR-2-AMC; assay type: biochemical
# kallikrein, sequence (P03952 20-638): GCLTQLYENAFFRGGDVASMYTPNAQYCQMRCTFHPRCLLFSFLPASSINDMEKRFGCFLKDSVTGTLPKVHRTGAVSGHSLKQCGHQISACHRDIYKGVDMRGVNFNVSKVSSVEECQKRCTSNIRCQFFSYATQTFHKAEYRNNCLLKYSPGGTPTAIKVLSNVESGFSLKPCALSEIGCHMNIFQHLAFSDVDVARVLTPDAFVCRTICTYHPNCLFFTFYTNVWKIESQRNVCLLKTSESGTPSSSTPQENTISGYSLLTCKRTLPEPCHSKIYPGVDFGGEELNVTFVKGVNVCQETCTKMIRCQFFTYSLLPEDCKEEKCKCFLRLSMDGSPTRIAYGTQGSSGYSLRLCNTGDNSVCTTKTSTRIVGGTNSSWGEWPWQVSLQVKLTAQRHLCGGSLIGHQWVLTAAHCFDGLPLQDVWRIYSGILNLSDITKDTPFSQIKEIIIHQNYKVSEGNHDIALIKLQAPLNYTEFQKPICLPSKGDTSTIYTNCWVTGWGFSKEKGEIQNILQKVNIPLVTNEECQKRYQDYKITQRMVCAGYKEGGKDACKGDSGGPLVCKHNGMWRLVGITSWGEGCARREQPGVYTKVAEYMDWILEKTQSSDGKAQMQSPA
# Description: The ability of the compounds disclosed herein to inhibit cellular kallikrein activity was quantified and the respective EC50 value was determined.
# All dilutions were prepared in an assay buffer comprising 50 mM Tris-HCl pH 7.2, 150 mM NaCl, and 0.01% Triton X-100.
# The ten solutions of the test compounds, prepared by serial dilution, were further diluted 50-fold in the assay buffer.
# Human plasma is thawed on ice and centrifuged for 15 min at 4° C. to remove platelets. A 1 mM stock solution of ellagic acid is diluted to 8 μM and mixed with human plasma, after removing platelets, at a ratio of 1:0.8.
# A 22.5 μL volume of the final mixture of human plasma and ellagic acid was added to a 96-well microwell plate and the plate was incubated for 15 min at 37° C.
# The CINH inhibitor at various concentrations, prepared by serial dilutions as described above, were added to the inhibitor control wells. […] Each CINH concentration is tested in duplicates.
# The test compounds at various concentrations, also prepared by serial dilutions as described above, are added to the test wells. […] Each test compound concentration was tested in duplicates.
# In addition to the inhibitor control and test wells, the 96 well assay plate includes positive control wells which contained the mixture of human plasma and ellagic acid without C1NH inhibitor or test compounds, and background wells which contained neither the mixture of human plasma and ellagic acid nor the test compounds. The total volume of liquid in positive control and background wells was brought up to 35 μL, using the assay buffer.
# The assay plate containing C1NH inhibitors and test compounds mixed with human plasma and ellagic acid and appropriate controls was incubated at 37° C. for 5 min. […] The reagents were mixed well by shaking the plate gently for 30 sec.
# The enzyme reaction was quantified by immediate kinetic reading of the assay plate using excitation/emission wavelengths of 330 nm/440 nm respectively. Fluorescence intensity was recorded for 60 min, using a time interval of 43 sec.
# The inhibition activity of the test compounds were evaluated using the IC50 values, calculated according to the dose-response curve of the test compounds, fitted using the “log(inhibitor)-response (variable slope)” equation in GraphPadPrism software (GraphPad Software, Inc.).
# The percentage inhibition was calculated using the following equation:
# [formula] where, Mean(BG) is the average value of the fluorescence intensity of the background wells and Mean(PC) is the average value of the fluorescence intensity of the positive control wells.
# Table 4 provides the EC50 values of various compounds disclosed herein.
# [1] = human plasma activated with ellagic acid, Z-FR-2-AMC substrate, 37° C., read-out: Contact Assay EC50
# human Plasma Kallikrein, sequence (P03952 20-638): as above
IC50 (human Plasma Kallikrein),EC50 (kallikrein; [1]),SMILES,EC50 (kallikrein)
< 100 nM,< 100 nM,"Cc1ccc2cc(Cc3cc(C(=O)NCc4c(C)cc(N)nc4C)ccn3)ccc2n1 [Example 113, N-((6-amino-2,4-dimethylpyridin-3-yl)methyl)-2-((2-methylquinolin-6-yl)methyl)isonicotinamide]",–
< 100 nM,< 100 nM,"Cc1cnc2ccc(Cc3cc(C(=O)NCc4ccc5c(N)nccc5c4)ccn3)cc2c1 [Example 142, N-((1-aminoisoquinolin-6-yl)methyl)-2-((3-methylquinolin-6-yl)methyl)isonicotinamide]",–
< 100 nM,< 100 nM,"Cc1cnc2c(C(N)=O)cc(Cc3cc(C(=O)NCc4cnc5[nH]cc(Cl)c5c4)ccn3)cc2c1 [Example 80, 6-((4-(((3-chloro-1H-pyrrolo[2,3-b]pyridin-5-yl)methyl)carbamoyl)pyridin-2-yl)methyl)-3-methylquinoline-8-carboxamide]",–
< 100 nM,100 to 1000 nM,"Cc1cc2cc(Cc3cc(C(=O)NCc4ccc5c(N)nccc5c4)ccn3)ccc2cn1 [Example 132, N-((1-aminoisoquinolin-6-yl)methyl)-2-((3-methylisoquinolin-6-yl)methyl)isonicotinamide]",–
< 100 nM,< 100 nM,"Cc1cc(N)nc(C)c1CNC(=O)c1ccnc(Cc2ccc3ncc(Cl)cc3c2)c1 [Example 35, N-((6-amino-2,4-dimethylpyridin-3-yl)methyl)-2-((3-chloroquinolin-6-yl)methyl)isonicotinamide]",–
< 100 nM,< 100 nM,"Cc1ccc2ncc(Cc3cc(C(=O)NCc4ccc5c(N)nccc5c4)ccn3)cc2c1 [Example 115, N-((1-aminoisoquinolin-6-yl)methyl)-2-((6-methylquinolin-3-yl)methyl)isonicotinamide]",–
< 100 nM,< 100 nM,"Cc1cnc2c(C(N)=O)cc(Cc3cc(C(=O)NCc4cc5c(Cl)c[nH]c5cc4F)ccn3)cc2c1 [Example 78, 6-((4-(((3-chloro-6-fluoro-1H-indol-5-yl)methyl)carbamoyl)pyridin-2-yl)methyl)-3-methylquinoline-8-carboxamide]",–
< 100 nM,< 100 nM,"Cc1cnc2c(C#N)cc(Cc3cc(C(=O)NCc4c(C)cc(N)nc4C)ccn3)cc2c1 [Example 70, N-((6-amino-2,4-dimethylpyridin-3-yl)methyl)-2-((8-cyano-3-methylquinolin-6-yl)methyl)isonicotinamide]",–
< 100 nM,100 to 1000 nM,"NC(=O)c1cc(Cc2cc(C(=O)NCc3cc4c(Cl)c[nH]c4cc3F)ccn2)cc2cc(Cl)cnc12 [Example 59, 3-chloro-6-((4-(((3-chloro-6-fluoro-1H-indol-5-yl)methyl)carbamoyl)pyridin-2-yl)methyl)quinoline-8-carboxamide]",–
–,–,"Cc1nc(N)ccc1CNC(=O)c1ccnc(Cc2cc(C#N)c3ncc(Cl)cc3c2)c1 [Example 56, N-(6-amino-2-methyl-pyridin-3-ylmethyl)-2-(3-chloro-8-cyano-quinolin-6-ylmethyl)-isonicotinamide]",100 to 1000 nM
< 100 nM,100 to 1000 nM,"Cc1ccc2ncc(Cc3cc(C(=O)NCc4ccc(N)nc4C)ccn3)cc2c1 [Example 117, N-((6-amino-2-methylpyridin-3-yl)methyl)-2-((6-methylquinolin-3-yl)methyl)isonicotinamide]",–
< 100 nM,100 to 1000 nM,"Cc1cnc2ccc(Cc3cc(C(=O)NCc4cc5c(Cl)c[nH]c5cc4F)ccn3)cc2c1 [Example 143, N-((3-chloro-6-fluoro-1H-indol-5-yl)methyl)-2-((3-methylquinolin-6-yl)methyl)isonicotinamide]",–
< 100 nM,< 100 nM,"Cc1cnc2c(S(C)(=O)=O)cc(Cc3cc(C(=O)NCc4cc5c(Cl)c[nH]c5cc4F)ccn3)cc2c1 [Example 17, N-((3-chloro-6-fluoro-1H-indol-5-yl)methyl)-2-((3-methyl-8-(methylsulfonyl)quinolin-6-yl)methyl)isonicotinamide]",–
< 100 nM,100 to 1000 nM,"Cc1ccc2cc(Cc3cc(C(=O)NCc4cc5c(Cl)c[nH]c5cc4F)ccn3)ccc2n1 [Example 110, N-((3-chloro-6-fluoro-1H-indol-5-yl)methyl)-2-((2-methylquinolin-6-yl)methyl)isonicotinamide]",–
< 100 nM,< 100 nM,"Cc1nc(N)ccc1CNC(=O)c1ccnc(Cc2cc(F)c3ncc(Cl)cc3c2)c1 [Example 91, N-(6-amino-2-methyl-pyridin-3-ylmethyl)-2-(3-chloro-8-fluoro-quinolin-6-ylmethyl)-isonicotinamide]",–
< 100 nM,< 100 nM,"Cc1ccc2ncc(Cc3cc(C(=O)NCc4c(C)cc(N)nc4C)ccn3)cc2c1 [Example 114, N-((6-amino-2,4-dimethylpyridin-3-yl)methyl)-2-((6-methylquinolin-3-yl)methyl)isonicotinamide]",–
< 100 nM,100 to 1000 nM,"Cc1cnc2c(C(N)=O)cc(Cc3cc(C(=O)NCc4n[nH]c5ccc(Cl)cc45)ccn3)cc2c1 [Example 82, 6-((4-(((5-chloro-1H-indazol-3-yl)methyl)carbamoyl)pyridin-2-yl)methyl)-3-methylquinoline-8-carboxamide]",–
< 100 nM,< 100 nM,"Cc1cnc2c(C(N)=O)cc(Cc3cc(C(=O)NCc4ccc5c(N)nccc5c4)ccn3)cc2c1 [Example 79, 6-((4-(((1-aminoisoquinolin-6-yl)methyl)carbamoyl)pyridin-2-yl)methyl)-3-methylquinoline-8-carboxamide]",–
< 100 nM,100 to 1000 nM,"Cc1ccc2ncc(Cc3cc(C(=O)NCc4cc5c(Cl)c[nH]c5cc4F)ccn3)cc2c1 [Example 116, N-((3-chloro-6-fluoro-1H-indol-5-yl)methyl)-2-((6-methylquinolin-3-yl)methyl) isonicotinamide]",–
< 100 nM,< 100 nM,"CS(=O)(=O)c1cc(Cc2cc(C(=O)NCc3cc4c(Cl)c[nH]c4cc3F)ccn2)cc2cc(Cl)cnc12 [Example 68, N-((3-chloro-6-fluoro-1H-indol-5-yl)methyl)-2-((3-chloro-8-(methylsulfonyl)quinolin-6-yl)methyl)isonicotinamide]",–
< 100 nM,< 100 nM,"Cc1cc(N)nc(C)c1CNC(=O)c1ccnc(Cc2cc(S(C)(=O)=O)c3ncc(Cl)cc3c2)c1 [Example 67, N-((6-amino-2,4-dimethylpyridin-3-yl)methyl)-2-((3-chloro-8-(methylsulfonyl)quinolin-6-yl)methyl)isonicotinamide]",–

SMILES,IC50 (human Plasma Kallikrein),EC50 (kallikrein; [1]),EC50 (kallikrein)
"NC(=O)c1cc(Cc2cc(C(=O)NCc3cc4cc[nH]c4cc3F)ccn2)cc2cc(Cl)cnc12 [Example 66, 3-chloro-6-((4-(((6-fluoro-1H-indol-5-yl)methyl)carbamoyl)pyridin-2-yl)methyl)quinoline-8-carboxamide]",< 100 nM,100 to 1000 nM,–
"NC(=O)c1cc(Cc2cc(C(=O)NCc3ccc4[nH]cc(Cl)c4c3F)ccn2)cc2cc(Cl)cnc12 [Example 65, 3-chloro-6-((4-(((3-chloro-4-fluoro-1H-indol-5-yl)methyl)carbamoyl)pyridin-2-yl)methyl)quinoline-8-carboxamide]",< 100 nM,< 100 nM,–
"Cc1nc(N)ccc1CNC(=O)c1ccnc(Cc2cc(S(C)(=O)=O)c3ncc(Cl)cc3c2)c1 [Example 69, N-((6-amino-2-methylpyridin-3-yl)methyl)-2-((3-chloro-8-(methylsulfonyl)quinolin-6-yl)methyl)isonicotinamide]",< 100 nM,< 100 nM,–
"Cc1cnc2c(S(C)(=O)=O)cc(Cc3cc(C(=O)NCc4cc5cc[nH]c5cc4F)ccn3)cc2c1 [Example 18, N-((6-fluoro-1H-indol-5-yl)methyl)-2-((3-methyl-8-(methylsulfonyl)quinolin-6-yl)methyl)isonicotinamide]",< 100 nM,100 to 1000 nM,–
"Cc1cnc2c(S(C)(=O)=O)cc(Cc3cc(C(=O)NCc4ccc5[nH]cc(Cl)c5c4F)ccn3)cc2c1 [Example 21, N-((3-chloro-4-fluoro-1H-indol-5-yl)methyl)-2-((3-methyl-8-(methylsulfonyl)quinolin-6-yl)methyl)isonicotinamide]",< 100 nM,< 100 nM,–
"Cc1cnc2c(C(N)=O)cc(Cc3cc(C(=O)NCc4cc5cc[nH]c5cc4F)ccn3)cc2c1 [Example 83, 6-((4-(((6-fluoro-1H-indol-5-yl)methyl)carbamoyl)pyridin-2-yl)methyl)-3-methylquinoline-8-carboxamide]",< 100 nM,100 to 1000 nM,–
